Legend:
BRG1 = biological target: T1, BRG1 (Homo sapiens, UniProt P51532); test: Immunofluorescence assay for BRG1 degradation in SW1573 cells; assay type: cell-based; settings: 20 hours incubation; for DC50: immunofluorescence mean nuclear signal, read-out: BRG1 IF Degradation IC50; for Dmax: SW1573, 20 h, normalized to a known degrader control, read-out: BRG1 IF Degradation Sinf (%)
T1 construct: either BRM primary antibody (Cell signaling Cat #11966) or BRG primary antibody (Abcam, ab 110641); endogenous in cells; host or cells: SW1573
Protocol: (§1) Example B-2: Immunofluorescence Assay for BRM and BRG1 Degraders
(§2) SW1573 cells were seeded at 3000 cells/well in 384 well plates. The next day, compounds were added using an Echo dispenser. After 20 hours of incubation with compound, cells were fixed with 4% formaldehyde then permeabilized with 0.2% Triton X-100 and blocked with 10% FCS. Fixed and permeabilized cells were treated overnight at 4° C. with either BRM primary antibody (Cell signaling Cat #11966) or BRG primary antibody (Abcam, ab 110641). Finally, cells were treated with fluorescently labeled secondary antibodies for 1 hr (Donkey anti-Rabbit IgG AF488, Life Technologies, A21206) and Hoechst nuclear stain (#H3569) was added for 30 minutes. Cells were washed with PBS in between each step and before imaging on an Opera Phenix microscope (Perkin Elmer). Harmony software (Perking Elmer) was used to quantify the mean nuclear signaling intensity of BRM or BRG signaling per cell in each well. Dose responses were determined from the concentration dependent response of mean nuclear signal intensity with data normalized to a known degrader control. Dose response curves were fit to a floating maximum to allow for calculation of the Dmax.
(§3) Note that, in Table 5, the “Compound Number” corresponds to that used in Table 1. In Table 5, for BRM and BRG1 IF degradation IC50 (μM): A indicates <0.010 μM, B indicates 0.010-0.10 μM, and C indicates >0.10 μM; and for BRM and BRG1 IF degradation Sinf % D indicates 0-−30%, E indicates −30%-−70%, F indicates −71%-−120% and ND indicates the value was not determined.

BRM = BRM (Homo sapiens, UniProt P51531); test: Immunofluorescence assay for BRM degradation in SW1573 cells; assay type: cell-based; design: treated overnight at 4° C. with either BRM primary antibody (Cell signaling Cat #11966) or BRG primary antibody; endogenous in cells; host or cells: SW1573; settings: 20 hours incubation; for DC50: immunofluorescence mean nuclear signal, read-out: BRM IF Degradation IC50; for BRM IF Degradation Sinf (%): normalized to a known degrader control
Protocol: as §1, §2, §3

BRM, sequence (P51531 whole entry): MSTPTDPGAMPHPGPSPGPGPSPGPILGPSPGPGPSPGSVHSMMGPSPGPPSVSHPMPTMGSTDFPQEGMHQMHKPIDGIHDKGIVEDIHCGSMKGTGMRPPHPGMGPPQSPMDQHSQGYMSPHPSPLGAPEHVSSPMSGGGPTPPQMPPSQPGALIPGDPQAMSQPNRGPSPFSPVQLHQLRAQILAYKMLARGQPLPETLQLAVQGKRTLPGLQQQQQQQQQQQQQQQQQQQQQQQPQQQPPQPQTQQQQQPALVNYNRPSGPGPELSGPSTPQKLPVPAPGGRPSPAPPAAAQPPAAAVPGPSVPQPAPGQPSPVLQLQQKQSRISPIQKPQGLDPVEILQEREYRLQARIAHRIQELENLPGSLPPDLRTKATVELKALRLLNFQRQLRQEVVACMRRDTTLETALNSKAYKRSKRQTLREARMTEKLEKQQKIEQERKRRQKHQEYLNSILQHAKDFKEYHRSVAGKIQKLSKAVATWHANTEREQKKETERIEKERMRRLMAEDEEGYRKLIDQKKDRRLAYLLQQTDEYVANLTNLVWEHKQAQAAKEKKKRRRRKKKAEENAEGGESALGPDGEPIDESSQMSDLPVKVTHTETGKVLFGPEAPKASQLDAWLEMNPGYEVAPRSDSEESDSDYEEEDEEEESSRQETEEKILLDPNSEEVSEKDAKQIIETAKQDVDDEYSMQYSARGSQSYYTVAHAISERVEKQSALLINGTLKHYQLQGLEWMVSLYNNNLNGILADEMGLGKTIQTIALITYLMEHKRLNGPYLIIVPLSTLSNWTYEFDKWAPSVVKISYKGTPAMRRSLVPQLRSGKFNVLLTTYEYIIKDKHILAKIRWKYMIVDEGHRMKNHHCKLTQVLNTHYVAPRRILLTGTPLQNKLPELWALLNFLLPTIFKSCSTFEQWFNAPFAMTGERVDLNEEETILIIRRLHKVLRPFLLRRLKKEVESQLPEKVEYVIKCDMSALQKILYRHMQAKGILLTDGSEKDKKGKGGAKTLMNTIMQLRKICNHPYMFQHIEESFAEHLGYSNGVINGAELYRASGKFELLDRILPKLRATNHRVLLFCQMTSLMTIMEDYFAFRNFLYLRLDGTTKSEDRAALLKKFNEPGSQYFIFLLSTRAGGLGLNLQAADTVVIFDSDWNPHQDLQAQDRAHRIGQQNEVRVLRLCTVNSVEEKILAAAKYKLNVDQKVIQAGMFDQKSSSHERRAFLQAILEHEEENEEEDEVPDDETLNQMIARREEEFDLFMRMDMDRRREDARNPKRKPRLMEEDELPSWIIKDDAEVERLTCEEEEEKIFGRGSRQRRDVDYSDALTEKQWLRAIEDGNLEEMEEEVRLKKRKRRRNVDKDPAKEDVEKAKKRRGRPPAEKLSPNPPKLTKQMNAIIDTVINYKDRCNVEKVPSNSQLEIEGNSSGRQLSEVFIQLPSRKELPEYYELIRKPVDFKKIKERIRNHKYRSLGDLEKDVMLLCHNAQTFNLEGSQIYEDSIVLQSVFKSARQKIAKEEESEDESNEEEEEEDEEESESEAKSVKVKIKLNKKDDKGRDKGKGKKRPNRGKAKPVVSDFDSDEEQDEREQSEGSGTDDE
T1 sequence (P51532 whole entry): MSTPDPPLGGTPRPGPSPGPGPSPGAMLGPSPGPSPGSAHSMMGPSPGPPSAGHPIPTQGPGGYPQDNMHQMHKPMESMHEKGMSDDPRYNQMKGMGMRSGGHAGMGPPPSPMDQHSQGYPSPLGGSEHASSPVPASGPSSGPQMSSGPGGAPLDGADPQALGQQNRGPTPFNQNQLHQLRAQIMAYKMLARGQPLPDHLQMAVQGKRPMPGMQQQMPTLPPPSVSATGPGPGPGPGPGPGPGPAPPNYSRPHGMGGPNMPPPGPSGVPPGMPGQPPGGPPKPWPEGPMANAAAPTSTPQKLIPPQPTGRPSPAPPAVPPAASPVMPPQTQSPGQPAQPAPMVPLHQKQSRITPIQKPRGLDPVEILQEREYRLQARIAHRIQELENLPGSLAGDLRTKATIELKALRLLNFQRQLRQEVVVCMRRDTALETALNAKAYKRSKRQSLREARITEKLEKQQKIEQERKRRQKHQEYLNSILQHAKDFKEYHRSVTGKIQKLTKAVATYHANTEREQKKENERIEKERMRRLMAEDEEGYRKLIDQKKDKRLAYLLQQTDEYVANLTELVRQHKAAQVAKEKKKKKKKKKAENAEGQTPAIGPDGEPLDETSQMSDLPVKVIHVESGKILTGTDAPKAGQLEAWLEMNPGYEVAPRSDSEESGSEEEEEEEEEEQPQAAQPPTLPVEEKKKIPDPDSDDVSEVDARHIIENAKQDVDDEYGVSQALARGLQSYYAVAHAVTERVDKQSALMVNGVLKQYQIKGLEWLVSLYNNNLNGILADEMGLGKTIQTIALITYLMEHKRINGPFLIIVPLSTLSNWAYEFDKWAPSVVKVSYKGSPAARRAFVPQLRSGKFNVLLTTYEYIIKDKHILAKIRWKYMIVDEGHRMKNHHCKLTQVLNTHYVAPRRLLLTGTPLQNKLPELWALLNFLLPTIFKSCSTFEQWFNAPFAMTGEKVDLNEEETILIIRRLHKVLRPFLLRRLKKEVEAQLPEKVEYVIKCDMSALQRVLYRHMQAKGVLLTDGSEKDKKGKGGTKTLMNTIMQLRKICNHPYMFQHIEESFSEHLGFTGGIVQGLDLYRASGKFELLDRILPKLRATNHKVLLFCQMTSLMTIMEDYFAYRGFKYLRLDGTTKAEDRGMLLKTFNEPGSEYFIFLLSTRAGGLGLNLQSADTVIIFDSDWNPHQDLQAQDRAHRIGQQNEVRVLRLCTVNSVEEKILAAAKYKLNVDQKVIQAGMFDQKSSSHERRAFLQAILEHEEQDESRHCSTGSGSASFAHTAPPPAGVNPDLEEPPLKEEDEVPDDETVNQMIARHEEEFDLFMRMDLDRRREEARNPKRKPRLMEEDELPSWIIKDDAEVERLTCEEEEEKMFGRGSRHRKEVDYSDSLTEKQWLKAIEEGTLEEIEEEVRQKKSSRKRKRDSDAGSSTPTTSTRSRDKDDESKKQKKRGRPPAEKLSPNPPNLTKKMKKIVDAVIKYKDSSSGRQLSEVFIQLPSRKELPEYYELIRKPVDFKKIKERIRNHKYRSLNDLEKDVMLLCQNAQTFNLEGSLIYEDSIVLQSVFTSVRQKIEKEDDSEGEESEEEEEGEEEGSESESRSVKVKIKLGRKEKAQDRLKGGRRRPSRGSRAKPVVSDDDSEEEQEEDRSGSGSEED

Structure (SMILES)	DC50 (BRG1) [nM]	Dmax (BRG1) [%]	DC50 (BRM) [nM]	BRM IF Degradation Sinf (%) (BRM)
Oc1ccccc1-c1cc2c(nn1)NC[C@H]1CN(c3ccnc(C#CCN4CCCCCC4)c3)CCN21 (single isomer, unassigned) [Compound 252]	< 10	71 to 120	< 10	F (F indicates −71%-−120%)
Oc1ccccc1-c1cc2c(nn1)NC[C@@H]1CN(c3ccnc(C#CCN4CCCCCC4)c3)CCN21 (single isomer, unassigned) [Compound 253]	< 10	71 to 120	< 10	F (F indicates −71%-−120%)
Nc1nnc(-c2ccccc2O)cc1N1CC2CCC(C1)N2c1ccnc(C#CCNC(=O)C2CCNCC2)c1 [Compound 35, N-[3-[4-[3-[3-amino-6-(2-hydroxyphenyl)pyridazin-4-yl]-3,8-diazabicyclo[3.2.1]octan-8-yl]-2-pyridyl]prop-2-ynyl]piperidine-4-carboxamide]	> 100	–	> 100	E (E indicates −30%-−70%)
CC(C)(N)C#Cc1cc(N2C3CCC2CN(c2cc(-c4ccccc4O)nnc2N)C3)ccn1 [Compound 36, 2-[6-amino-5-[8-[2-(3-amino-3-methyl-but-1-ynyl)-4-pyridyl]-3,8-diazabicyclo[3.2.1]octan-3-yl]pyridazin-3-yl]phenol]	10 to 100	30 to 70	10 to 100	E (E indicates −30%-−70%)
COC1CCCN(CC#Cc2cc(N3C4CCC3CN(c3cc(-c5ccccc5O)nnc3N)C4)ccn2)C1 (centres unmarked) [Compound 37, 2-[6-amino-5-[8-[2-[3-(3-methoxy-1-piperidyl)prop-1-ynyl]-4-pyridyl]-3,8-diazabicyclo[3.2.1]octan-3-yl]pyridazin-3-yl]phenol]	< 10	30 to 70	10 to 100	E (E indicates −30%-−70%)
Nc1nnc(-c2ccccc2O)cc1N1CC2CCC(C1)N2c1ccnc(C#CCN2CCN(C3CC3)CC2)c1 [Compound 38, 2-[6-amino-5-[8-[2-[3-(4-cyclopropylpiperazin-1-yl)prop-1-ynyl]-4-pyridyl]-3,8-diazabicyclo[3.2.1]octan-3-yl]pyridazin-3-yl]phenol]	> 100	–	10 to 100	E (E indicates −30%-−70%)
Nc1nnc(-c2ccccc2O)cc1N1CC2CCC(C1)N2c1ccnc(C#CCN2CC3CCCCC3C2)c1 (centres unmarked) [Compound 39, 2-[5-[8-[2-[3-(1,3,3a,4,5,6,7,7a-octahydroisoindol-2-yl)prop-1-ynyl]-4-pyridyl]-3,8-diazabicyclo[3.2.1]octan-3-yl]-6-amino-pyridazin-3-yl]phenol]	< 10	30 to 70	< 10	F (F indicates −71%-−120%)
CC1CN(CC#Cc2cc(N3C4CCC3CN(c3cc(-c5ccccc5O)nnc3N)C4)ccn2)CCN1 (centres unmarked) [Compound 40, 2-[6-amino-5-[8-[2-[3-(3-methylpiperazin-1-yl)prop-1-ynyl]-4-pyridyl]-3,8-diazabicyclo[3.2.1]octan-3-yl]pyridazin-3-yl]phenol]	> 100	–	> 100	E (E indicates −30%-−70%)
COCC1CCCCN1CC#Cc1cc(N2C3CCC2CN(c2cc(-c4ccccc4O)nnc2N)C3)ccn1 (centres unmarked) [Compound 41, 2-[6-amino-5-[8-[2-[3-[2-(methoxymethyl)-1-piperidyl]prop-1-ynyl]-4-pyridyl]-3,8-diazabicyclo[3.2.1]octan-3-yl]pyridazin-3-yl]phenol]	10 to 100	30 to 70	10 to 100	E (E indicates −30%-−70%)
CC1CN(CC#Cc2cc(N3C4CCC3CN(c3cc(-c5ccccc5O)nnc3N)C4)ccn2)CCCO1 (centres unmarked) [Compound 42, 2-[6-amino-5-[8-[2-[3-(2-methyl-1,4-oxazepan-4-yl)prop-1-ynyl]-4-pyridyl]-3,8-diazabicyclo[3.2.1]octan-3-yl]pyridazin-3-yl]phenol]	10 to 100	30 to 70	10 to 100	E (E indicates −30%-−70%)
Nc1nnc(-c2ccccc2O)cc1N1CC2CCC(C1)N2c1ccnc(C#CCN2CCC(F)(F)C2)c1 [Compound 43, 2-[6-amino-5-[8-[2-[3-(3,3-difluoropyrrolidin-1-yl)prop-1-ynyl]-4-pyridyl]-3,8-diazabicyclo[3.2.1]octan-3-yl]pyridazin-3-yl]phenol]	< 10	0 to 30	10 to 100	E (E indicates −30%-−70%)
Nc1nnc(-c2ccccc2O)cc1N1CC2CCC(C1)N2c1ccnc(C#CCN2CCC3(CCCO3)C2)c1 (centres unmarked) [Compound 44, 2-[6-amino-5-[8-[2-[3-(1-oxa-7-azaspiro[4.4]nonan-7-yl)prop-1-ynyl]-4-pyridyl]-3,8-diazabicyclo[3.2.1]octan-3-yl]pyridazin-3-yl]phenol]	10 to 100	30 to 70	< 10	E (E indicates −30%-−70%)
Nc1nnc(-c2ccccc2O)cc1N1CC2CCC(C1)N2c1ccnc(C#CCN2CCC(CO)CC2)c1 [Compound 45, 2-(6-amino-5-(8-(2-(3-(4-(hydroxymethyl)piperidin-1-yl)prop-1-yn-1-yl)pyridin-4-yl)-3,8-diazabicyclo[3.2.1]octan-3-yl)pyridazin-3-yl)phenol]	10 to 100	30 to 70	10 to 100	E (E indicates −30%-−70%)
Nc1nnc(-c2ccccc2O)cc1N1CC2CCC(C1)N2c1ccnc(C#CCN2CCC[C@H]2CO)c1 [Compound 46, 2-[6-amino-5-[8-[2-[3-[(2S)-2-(hydroxymethyl)pyrrolidin-1-yl]prop-1-ynyl]-4-pyridyl]-3,8-diazabicyclo[3.2.1]octan-3-yl]pyridazin-3-yl]phenol]	10 to 100	30 to 70	< 10	E (E indicates −30%-−70%)
Nc1nnc(-c2ccccc2O)cc1N1CC2CCC(C1)N2c1ccnc(C#CCCN2CCCCC2)c1 [Compound 182, 2-[6-amino-5-[8-[2-[4-(1-piperidyl)but-1-ynyl]-4-pyridyl]-3,8-diazabicyclo[3.2.1]octan-3-yl]pyridazin-3-yl]phenol]	–	–	> 100	F (F indicates −71%-−120%)
CC1CCN(CC#Cc2cc(N3C4CCC3CN(c3cc(-c5ccccc5O)nnc3N)C4)ccn2)CCC1=O (centres unmarked) [Compound 198, 1-[3-[4-[3-[3-amino-6-(2-hydroxyphenyl)pyridazin-4-yl]-3,8-diazabicyclo[3.2.1]octan-8-yl]-2-pyridyl]prop-2-ynyl]-5-methyl-azepan-4-one]	–	–	< 10	E (E indicates −30%-−70%)
Nc1nnc(-c2ccccc2O)cc1N1CC2CCC(C1)N2c1ccnc(C#CCN2CCCN(c3ccncc3)CC2)c1 [Compound 204, 2-[6-amino-5-[8-[2-[3-[4-(4-pyridyl)-1,4-diazepan-1-yl]prop-1-ynyl]-4-pyridyl]-3,8-diazabicyclo[3.2.1]octan-3-yl]pyridazin-3-yl]phenol]	–	–	10 to 100	E (E indicates −30%-−70%)
CC1(C)CC(O)CCN(CC#Cc2cc(N3C4CCC3CN(c3cc(-c5ccccc5O)nnc3N)C4)ccn2)C1 (centres unmarked) [Compound 213, 1-[3-[4-[3-[3-amino-6-(2-hydroxyphenyl)pyridazin-4-yl]-3,8-diazabicyclo[3.2.1]octan-8-yl]-dimethyl-azepan-4-ol 2-pyridyl]prop-2-ynyl]-6,6-]	–	–	10 to 100	E (E indicates −30%-−70%)
Nc1nnc(-c2ccccc2O)cc1N1CC2CCC(C1)N2c1ccnc(C#CCN2CC3C4CCC(C4)C32)c1 (centres unmarked) [Compound 220, 2-[6-amino-5-[8-[2-[3-(3-azatricyclo[4.2.1.02,5]nonan-3-yl)prop-1-ynyl]-4-pyridyl]-3,8-diazabicyclo[3.2.1]octan-3-yl]pyridazin-3-yl]phenol]	–	–	> 100	E (E indicates −30%-−70%)
Nc1nnc(-c2ccccc2O)cc1N1CC2CCC(C1)N2c1ccnc(/C=C/CN2CCCCCC2)c1 [Compound 248, (E)-2-(6-amino-5-(8-(2-(3-(azepan-1-yl)prop-1-en-1-yl)pyridin-4-yl)-3,8-diazabicyclo[3.2.1]octan-3-yl)pyridazin-3-yl)phenol]	–	–	< 10	E (E indicates −30%-−70%)
